Test results: PubChem BioAssay AID2060909 (Molecular Pharmacology Branch, DTP, NCI, 2025)

Tested on: 362531-283-R-J2-PDC complex spheroid viability
Test: Anticancer human tumor 362531-283-R-J2-PDC patient-derived colon adenocarcinoma cell line growth inhibition [RAS]
Conditions: for IC50: curve of first compound; for viability, T/C: stronger effect = lower value
Description: RAS pathway inhibitors in Combinations in Complex Spheroids
A high-throughput screen of multi-cell type tumor spheroids was designed to identify active combinations of RAS pathway inhibitors and targeted small molecules. Complex spheroids include a stromal component modeled by human endothelial cells (HUVEC) and fibroblasts modeled by human mesenchymal stem cells (MSCs). The concentration ranges selected for each drug and investigational agent were based upon clinically achievable concentrations if the clinical Cmax of the agent was known.
Compounds. The drugs and investigational agents: abemaciclib (NSC768073), cobimetinib (NSC768068), divarasib (GDC6063, NSC841802), docetaxel (NSC628503), GDC-1971 (RLY-1971, NSC841576), gemcitabine (NSC613327), inavolisib (NSC800729), ipatasertib (NSC767898), KB-0742 (NSC834161), MRTX-1133 (NSC836407), osimertinib (NSC779217), RMC-4630 (NSC839698), RMC-6236 (NSC851965), RMC-6291 (NSC852671), Ro-3306 (NSC812927), sapanisertib (NSC764658), SN-38 (NSC673596), staurosporine (NSC755774), SY5609 (NSC837396), and tovorafenib (DAY101, NSC766906), were obtained from the National Cancer Institute (NCI) Developmental Therapeutics Program Chemical Repository. The FDA-approved anticancer drug set is available from the NCI Developmental Therapeutics Program. […] The stock solutions were prepared in dimethyl sulfoxide (DMSO, Sigma-Aldrich, St. Louis, MO, cat. D2650) at 800-fold the tested concentration and stored at -70 degrees C prior to their use. All drugs and investigational agents were tested over a range starting from a high concentration at or near the clinical Cmax and decreasing in half-log increments. If the clinical Cmax for an agent had not been determined, the highest concentration tested was 10 microM.
Cell Culture. All cells were maintained in an incubator at 37 degrees C and 5% CO2 with 95% humidity. The PDC lines were cultured according to standard operating procedures established by the NCI PDMR. All PDCs were thawed and cultured in Matrigel-coated flasks prepared with a working solution of 1X Ham's F-12 nutrient mix, without supplementation (Invitrogen, Waltham, MA, cat. 11765054), 100 U/mL penicillin-streptomycin (Invitrogen, cat. 15140122), and 2.5% Matrigel (Corning Inc., Corning, NY, cat. 354248) for the first three passages. The 362531-283-R-J2-PDC and 782815-120-R-J1-PDC lines were cultured in 6C/Colon 1B media, which includes advanced DMEM/F-12 (Thermo Fisher Scientific, cat. 12634028), 10 mM HEPES (Thermo Fisher Scientific, cat. 15630080), 1X GlutaMAX supplement (Thermo Fisher Scientific, cat. 35050061), 0.1 mg/mL primocin (InvivoGen, San Diego, CA, cat. ant-pm-2), 10% defined fetal bovine serum, heat inactivated (HyClone Laboratories Inc., Logan, UT, cat. SH30070.03HI), 50% L-WRN conditioned media (ATCC, cat. CRL-3276), 1.25 mM N-Acetyl-L-cysteine (Sigma-Aldrich, cat. A9165), 10 mM nicotinamide (Sigma-Aldrich, cat. N0636), 1X B-27 supplement (Thermo Fisher Scientific, cat. 17504044), 1X N-2 supplement (Thermo Fisher Scientific, cat. 17502048), 50 ng/mL human EGF (Thermo Fisher Scientific, cat. PHG0311), and 10 microM Y-27632 dihydrochloride (Tocris Bioscience, cat. 1254). The K12877-001-R-J1-PDC line was cultured in 6I media, which includes all 6C/Colon 1B media plus 10 ng/mL human FGF-10 (PeproTech, cat. 100-26), 1 ng/mL human FGF-2 (PeproTech, cat. 100-18B), 1 µM prostaglandin E2 (Tocris Bioscience, cat. 2296), […] hydrocortisone (Sigma-Aldrich, cat. H4001), and […] bovine insulin (Sigma-Aldrich, cat. I6634). The K86415-001-R-J1-PDC line was cultured in 6D media, which includes all 6C/Colon 1B media components minus the L-WRN conditioned media. The 485176-168-R4-J1-PDC was cultured in PANC media, which includes all 6C/Colon 1B media plus 100 ng/mL human FGF-10 (PeproTech, cat. 100-26), 500 nM SB-431542 (Selleckchem, cat. S1067), and 10 nM gastrin (Tocris Bioscience, cat. 3006). […]

[1] = second compound 0.00316 µM, first compound 0.0316 µM
[2] = second compound 0.00316 µM, first compound 0.1 µM
[3] = second compound 0.00316 µM, first compound 0.316 µM
[4] = second compound 0.00316 µM, first compound 1 µM
[5] = second compound 0.00316 µM, first compound 3.16 µM
[6] = second compound 0.00316 µM, first compound 10 µM
[7] = second compound 0.01 µM, first compound 0.0316 µM
[8] = second compound 0.01 µM, first compound 0.1 µM
[9] = second compound 0.01 µM, first compound 0.316 µM
[10] = second compound 0.01 µM, first compound 1 µM
[11] = second compound 0.01 µM, first compound 3.16 µM
[12] = second compound 0.01 µM, first compound 10 µM
[13] = second compound 0.0316 µM, first compound 0.0316 µM
[14] = second compound 0.0316 µM, first compound 0.1 µM
[15] = second compound 0.0316 µM, first compound 0.316 µM
[16] = second compound 0.0316 µM, first compound 1 µM
[17] = second compound 0.0316 µM, first compound 3.16 µM
[18] = second compound 0.0316 µM, first compound 10 µM
[19] = second compound 0.1 µM, first compound 0.0316 µM
[20] = second compound 0.1 µM, first compound 0.1 µM
[21] = second compound 0.1 µM, first compound 0.316 µM
[22] = second compound 0.1 µM, first compound 1 µM
[23] = second compound 0.1 µM, first compound 3.16 µM
[24] = second compound 0.1 µM, first compound 10 µM
[25] = second compound 0.316 µM, first compound 0.0316 µM
[26] = second compound 0.316 µM, first compound 0.1 µM
[27] = second compound 0.316 µM, first compound 0.316 µM
[28] = second compound 0.316 µM, first compound 1 µM
[29] = second compound 0.316 µM, first compound 3.16 µM
[30] = second compound 0.316 µM, first compound 10 µM
[31] = second compound 1 µM, first compound 0.0316 µM
[32] = second compound 1 µM, first compound 0.1 µM
[33] = second compound 1 µM, first compound 0.316 µM
[34] = second compound 1 µM, first compound 1 µM
[35] = second compound 1 µM, first compound 3.16 µM
[36] = second compound 1 µM, first compound 10 µM
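Further: spheroids exposed to the agents for 7 days before readout.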
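Wherever viability, T/C is given: luminescence viability as percent of DMSO vehicle control wells.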

Compound `NC1c2ccccc2OC12CCN(c1cnc3c(N4CCCc5ncccc54)n[nH]c3n1)CC2` (centres undefined) + C=CC(=O)N1CCN(c2nc(OCC3CCCN3C)nc3c(F)c(-c4nc(N)cc(C)c4C(F)(F)F)c(Cl)cc23)C(C)C1 has an IC50 (second compound 0.00316 µM) of 3.84 µM, an IC50 (second compound 0.01 µM) of 5.87 µM and an IC50 (second compound 0.0316 µM) of 4.67 µM. It also gave an IC50 (second compound 0.1 µM) of 6.19 µM, an IC50 (second compound 0.316 µM) of 7.66 µM and an IC50 (second compound 1 µM) of 8.02 µM. The viability, T/C [1] was 102%, the viability, T/C [2] was 76.8% and the viability, T/C [3] was 83.8%. It also gave a viability, T/C [4] of 60%, a viability, T/C [5] of 56.2% and a viability, T/C [6] of 37.9%. It also gave a viability, T/C [7] of 92.1%, a viability, T/C [8] of 82.2% and a viability, T/C [9] of 75.1%. For the same compound, the viability, T/C [10] was 72.5%, the viability, T/C [11] was 57.8% and the viability, T/C [12] was 42.3%. The viability, T/C [13] was 89.4%, the viability, T/C [14] was 86.7% and the viability, T/C [15] was 73.3%. It also gave a viability, T/C [16] of 66.6%, a viability, T/C [17] of 58.3% and a viability, T/C [18] of 38.4%. The viability, T/C [19] was 93%, the viability, T/C [20] was 83.6% and the viability, T/C [21] was 79.2%. It also gave a viability, T/C [22] of 64%, a viability, T/C [23] of 61.9% and a viability, T/C [24] of 43%. The viability, T/C [25] was 94.4%, the viability, T/C [26] was 91.6% and the viability, T/C [27] was 78.4%. It also gave a viability, T/C [28] of 68.9%, a viability, T/C [29] of 65.7% and a viability, T/C [30] of 44.5%. It also gave a viability, T/C [31] of 91%, a viability, T/C [32] of 79.2% and a viability, T/C [33] of 74.7%. The viability, T/C [34] was 70%, the viability, T/C [35] was 61.9% and the viability, T/C [36] was 45.7%.
With `CC(Nc1ccc2c(c1)OCCn1cc(N3C(=O)OCC3C(F)F)nc1-2)C(N)=O` (centres undefined) + C=CC(=O)N1CCN(c2nc(OCC3CCCN3C)nc3c(F)c(-c4nc(N)cc(C)c4C(F)(F)F)c(Cl)cc23)C(C)C1 the IC50 (second compound 0.00316 µM) was 0.549 µM, the IC50 (second compound 0.01 µM) was 0.928 µM and the IC50 (second compound 0.0316 µM) was 0.666 µM. The IC50 (second compound 0.1 µM) was 0.81 µM, the IC50 (second compound 0.316 µM) was 0.839 µM and the IC50 (second compound 1 µM) was 0.808 µM. The viability, T/C [1] was 96.6%, the viability, T/C [2] was 78.6% and the viability, T/C [3] was 54.5%. It also gave a viability, T/C [4] of 46.1%, a viability, T/C [5] of 39.1% and a viability, T/C [6] of 42.7%. It also gave a viability, T/C [7] of 97.4%, a viability, T/C [8] of 86.2% and a viability, T/C [9] of 70.2%. For the same compound, the viability, T/C [10] was 46.8%, the viability, T/C [11] was 38.3% and the viability, T/C [12] was 30.3%. It also gave a viability, T/C [13] of 87.4%, a viability, T/C [14] of 84.4% and a viability, T/C [15] of 63.7%. It also gave a viability, T/C [16] of 43.5%, a viability, T/C [17] of 33.3% and a viability, T/C [18] of 43.4%. The viability, T/C [19] was 95.9%, the viability, T/C [20] was 92.5% and the viability, T/C [21] was 71.7%. It also gave a viability, T/C [22] of 44.2%, a viability, T/C [23] of 35.4% and a viability, T/C [24] of 27.4%. The viability, T/C [25] was 107%, the viability, T/C [26] was 88% and the viability, T/C [27] was 68.8%. It also gave a viability, T/C [28] of 47.9%, a viability, T/C [29] of 31.9% and a viability, T/C [30] of 35.8%. For the same compound, the viability, T/C [31] was 94.8%, the viability, T/C [32] was 95.6% and the viability, T/C [33] was 72%. For the same compound, the viability, T/C [34] was 46.6%, the viability, T/C [35] was 31.8% and the viability, T/C [36] was 35%.
